Data as given in patent US12486259B2, “FXR agonist having pyrazine structure, and preparation method and use” (JIANGSU TASLY DIYI PHARMACEUTICAL CO., LTD., priority 2020, dated 2025).

Experiments:
[1] = in vitro; conditions: human; for efflux ratio: Caco-2; for Papp A→B: Caco-2, Papp A-B; for Papp B→A: Caco-2, Papp B-A
Procedure: (§1) The bi-directional transport of target compounds from apical side (AP) to basolateral side (BL) and from BL side to AP side is studied by using human colon adenocarcinoma cell line Caco-2 monolayer model. The transport parameters, apparent permeability coefficient (Papp) and efflux ratio are calculated by quantitative analysis with high performance liquid chromatography (HPLC).

[2] = test system: human colon adenocarcinoma cell line Caco-2 monolayer model; assay: in vitro
Procedure: as §1

[3] = target: T1, FXR (Homo sapiens, UniProt Q96RI1); assay: Intracellular FXR-TR-FRET experiment (pBIND-FXR / pG5Luc dual luciferase); assay type: cell-based; conditions: cellular level, 18 hours with compound
T1 construct: expressed in transfected cells
T1 sequence (Q96RI1 1-486): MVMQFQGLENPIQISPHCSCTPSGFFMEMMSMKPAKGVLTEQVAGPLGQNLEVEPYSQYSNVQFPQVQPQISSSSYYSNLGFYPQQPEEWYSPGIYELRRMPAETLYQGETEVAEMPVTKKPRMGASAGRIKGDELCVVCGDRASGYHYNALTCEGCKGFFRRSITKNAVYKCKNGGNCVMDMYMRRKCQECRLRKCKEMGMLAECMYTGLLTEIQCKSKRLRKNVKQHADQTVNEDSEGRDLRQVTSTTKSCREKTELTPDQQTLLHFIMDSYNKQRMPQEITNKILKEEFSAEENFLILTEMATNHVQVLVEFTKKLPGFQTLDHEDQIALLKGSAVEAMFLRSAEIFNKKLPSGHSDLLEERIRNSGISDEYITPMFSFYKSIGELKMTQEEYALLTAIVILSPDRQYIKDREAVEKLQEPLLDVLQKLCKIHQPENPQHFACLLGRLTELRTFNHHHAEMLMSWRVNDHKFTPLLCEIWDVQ
Procedure: • 1. Cell culture: a, trypsinize dishes and seed cells are taken with appropriate density in 10 ml of complete […] at 37° C. b. Cells are incubated for 24 hours in 5% CO2 and humidified. • 2. Cell inoculation and transfection: FuGENE HD transfection reagent is used as a transfection reagent. • a. The transfection mixture is prepared according to the following procedure:
• b. The tube is tapped vigorously to mix the contents. The mixture is incubated at room temperature for 15 minutes. • c. Discs are trypsinized and cell density is determined. • d. The cytolymph is diluted to the desired volume at a density of 500,000 cells/ml (100 ul/well for 96-well plate). • e. The required volume of previously prepared transfection mixture is added to both cytolymph, and then 100 ul/well of cytolymph is dispensed onto the assay plate. • f. The assay plate is incubated under humidified conditions at 37° C., 5% CO2 for 24 hours. • 3. Compound preparation: • a. Compound stocks are prepared with a FXR working concentration of 10 mM and then diluted 3-fold in 100% DMSO. • b. 10 ul compound is added to 90 ul complete medium. • c. 5 ul compound solution is added to each well. • d. The plate is incubated at 37° C., 5% CO2 and humidified for 18 hours. • 4. Dual luciferase assay: the firefly and Renilla luciferase signals are analyzed by Dual Luciferase Reporter Assay System from Promega. Envision is used as a photometer. • 5. Result calculation: data values are normalized by dividing the firefly signal by the Renilla signal. “F/R” means “firefly/Renilla”. This normalization eliminates differences in different cell numbers and transfection efficiencies in each well. The % Activation value is calculated. The % Activation value is calculated by the following formula.
X is the “F/R” value for each concentration point. The minimum value is the average “F/R” value for the no compound control. The maximum value is the average “F/R” value of the reference compound control. • 6.

[4] = target: T2, GST-labeled recombinant human FXR protein (Homo sapiens, UniProt Q96RI1); assay: Agonistic activity on FXR receptor (GST-FXR / SRC-1 bead assay, protein level); assay type: biochemical; conditions: 0.4 nM FXR, 30 nM SRC-1, protein level
T2 construct: purchased Invitroren (so in the source)
T2 sequence (Q96RI1 262-486 limits assumed): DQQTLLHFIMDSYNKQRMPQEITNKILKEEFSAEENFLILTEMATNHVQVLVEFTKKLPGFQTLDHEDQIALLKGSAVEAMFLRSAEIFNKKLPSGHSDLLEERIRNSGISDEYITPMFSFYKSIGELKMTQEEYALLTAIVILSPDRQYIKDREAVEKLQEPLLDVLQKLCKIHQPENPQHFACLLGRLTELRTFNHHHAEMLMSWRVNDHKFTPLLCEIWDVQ
T2 sequence (Q15788 676-700 partner limits assumed): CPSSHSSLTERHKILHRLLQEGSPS
Procedure: Experimental procedures: FXR (GST-labeled recombinant human FXR protein, manufacturer: Invitroren, Item number: PV4835) and SRC-1 (steroid receptor co-activator-1) are thawed on ice. Three solutions of ABC are prepared by a buffer solution, solution A, 0.4 n M FXR and 30 nM SRC-1; solution B, 10 ug/ml Acceptor Beads; solution C, 10 ug/ml Donor Beads. Solution A is added to the plate at 15 uL per well. It is incubated at room temperature for 1 hour. Solution B is added to the plate at 7.5 uL per well. It is incubated at room temperature for 1 hour. Solution C is added to the plate at 7.5 uL per well. It is incubated at room temperature for 1 hour. It is read from the microplate reader Envision. The data are curve fitted by using Prism 5.0 to calculate the EC50.

[5] = literature; cited from earlier work
[6] = Caco-2, Recovery rate A-B, Average
[7] = Caco-2, Recovery rate A-B, Sample-01
[8] = Caco-2, Recovery rate A-B, Sample-02
[9] = Caco-2 cell line (21 days), Table 5

Row | Compound | efflux ratio [1] | Papp A→B [1] [×10⁻⁶ cm/s] | Papp A→B ([1]; Average) [×10⁻⁶ cm/s] | Papp A→B ([1]; Sample-01) [×10⁻⁶ cm/s] | Papp A→B ([1]; Sample-02) [×10⁻⁶ cm/s] | Papp B→A [1] [×10⁻⁶ cm/s] | recovery [1, 6] [%] | recovery [1, 7] [%] | recovery [1, 8] [%] | membrane permeation in Caco-2 (in words) ([2]; Caco-2) | EC50 [3] [nM] | EC50 [4] [nM] | further results
1 | O=C(O)c1cccc(C2CC(O)(c3ccc(OCc4c(-c5c(Cl)cccc5Cl)noc4C4CC4)cc3Cl)C2)c1 (centres unmarked) [Compound M3, reference compound] | > 76.8 | < 0.15 | < 0.15 | < 0.16 | < 0.14 | 11.6 | < 21.8 | < 27.2 | < 16.4 | poor permeation | 1490 | 1090 | Papp B→A ([1]; Average): 11.6 ×10⁻⁶ cm/s; Papp B→A ([1]; Sample-01): 13.3 ×10⁻⁶ cm/s; Papp B→A ([1]; Sample-02): 9.96 ×10⁻⁶ cm/s; recovery ([1]; Caco-2, Recovery rate B-A, Average): 36%; recovery ([1]; Caco-2, Recovery rate B-A, Sample-01): 36.3%; recovery ([1]; Caco-2, Recovery rate B-A, Sample-02): 35.6%; Papp A-B, Average ([2]; human, Caco-2): <0.15 10−6 cm/s
2 | C[C@H]1O[C@@H](O[C@H]2[C@@H](O)C[C@H](O[C@H]3[C@@H](O)C[C@H](O[C@H]4CC[C@@]5(C)[C@H](CC[C@@H]6[C@@H]5C[C@@H](O)[C@]5(C)[C@@H](C7=CC(=O)OC7)CC[C@]65O)C4)O[C@@H]3C)O[C@@H]2C)C[C@H](O)[C@@H]1O [Digoxin, digoxin, reference compound] | > 263 |  |  |  |  |  |  |  |  |  |  |  | Papp A→B ([1]; Average, Caco-2, A-B, Average (Table 3)): < 0.04 ×10⁻⁶ cm/s; Papp A→B [1, 9]: < 0.04 ×10⁻⁶ cm/s; Papp A→B ([1]; Sample-01, Caco-2, A-B, Sample-01): < 0.05 ×10⁻⁶ cm/s; Papp A→B ([1]; Sample-02, Caco-2, A-B, Sample-02): < 0.04 ×10⁻⁶ cm/s; Papp B→A ([1]; Average, Caco-2, B-A, Average (Table 3)): 11.6 ×10⁻⁶ cm/s; Papp B→A [1, 9]: 11.6 ×10⁻⁶ cm/s; Papp B→A ([1]; Sample-01, Caco-2, B-A, Sample-01): 11.7 ×10⁻⁶ cm/s; Papp B→A ([1]; Sample-02, Caco-2, B-A, Sample-02): 11.5 ×10⁻⁶ cm/s; recovery ([1]; Caco-2, Recovery rate A-B, Average, Caco-2, A-B): < 87%; recovery ([1]; Caco-2, Recovery rate A-B, Sample-01, Caco-2, A-B, Sample-01): < 85.2%; recovery ([1]; Caco-2, Recovery rate A-B, Sample-02, Caco-2, A-B, Sample-02): < 88.7%; recovery ([1]; Caco-2, Recovery rate B-A, Average, Caco-2, B-A): 94.6%; recovery ([1]; Caco-2, Recovery rate B-A, Sample-01, Caco-2, B-A, Sample-01): 93.7%; recovery ([1]; Caco-2, Recovery rate B-A, Sample-02, Caco-2, B-A, Sample-02): 95.4%; Papp A-B, Average ([2]; Caco-2, A-B, Average (Table 3)): <0.04 10−6 cm/s; Efflux rate = Papp B-A/Papp A-B ([2]; Caco-2 cell line (21 days)): > 262.93
3 | CC(C)c1onc(-c2c(Cl)cccc2Cl)c1COc1ccc(/C=C/c2cccc(C(=O)O)c2)c(Cl)c1 [GW4064] |  |  |  |  |  |  |  |  |  |  |  |  | oral availability [5]: 10%; t½ [5]: 3.5 h
4 | Cc1cc(C(=O)O)cc(C2CC(O)(c3cnc(OCc4c(-c5c(Cl)cccc5Cl)noc4C4CC4)cn3)C2)c1 (centres unmarked) [TM-08, 3-(3-(5-((5-cyclopropyl-3-(2,6-dichlorophenyl)isoxazol-4-yl)methoxy)pyrazine-2-yl)-3-hydroxycyclobutyl)-5-methyl benzoic acid] | 16.9 | 0.58 | 0.97 | 1.01 | 0.94 | 9.89 | 99 | 99.6 | 98.5 | poor effect | 1510 | 240 | 
